# ± gives the expanded uncertainty stated by the source.
# Experiment: xn = mol fraction of the nth substance listed
# Details: 100 kPa, Liquid; for viscosity: Concentric cylinders viscometry; for mass density: Vibrating tube method
structure (smiles),measurement,setting,value
CCC=O [propanal] + CCCC(C)O,viscosity,"293.15 K, x1 = 0.0809",3.75 ± 0.3 mPa·s
same,viscosity,"293.15 K, x1 = 0.1599",3.51 ± 0.28 mPa·s
same,viscosity,"293.15 K, x1 = 0.2402",3.25 ± 0.26 mPa·s
same,viscosity,"293.15 K, x1 = 0.35",2.87 ± 0.23 mPa·s
same,viscosity,"293.15 K, x1 = 0.44",2.54 ± 0.2 mPa·s
same,viscosity,"293.15 K, x1 = 0.5599",2.08 ± 0.17 mPa·s
same,viscosity,"293.15 K, x1 = 0.65",1.73 ± 0.14 mPa·s
same,viscosity,"293.15 K, x1 = 0.74",1.38 ± 0.11 mPa·s
same,viscosity,"293.15 K, x1 = 0.85",0.94 ± 0.08 mPa·s
same,viscosity,"293.15 K, x1 = 0.94",0.57 ± 0.05 mPa·s
same,viscosity,"293.15 K, x1 = 1",0.34 ± 0.03 mPa·s
same,mass density,"293.15 K, x1 = 0.0809",811 ± 1 kg/m3
same,mass density,"293.15 K, x1 = 0.1599",813.1 ± 1 kg/m3
same,mass density,"293.15 K, x1 = 0.2402",814.7 ± 1 kg/m3
same,mass density,"293.15 K, x1 = 0.35",816.4 ± 1 kg/m3
same,mass density,"293.15 K, x1 = 0.44",817 ± 1 kg/m3
same,mass density,"293.15 K, x1 = 0.5599",816.7 ± 1 kg/m3
same,mass density,"293.15 K, x1 = 0.65",815.8 ± 1 kg/m3
same,mass density,"293.15 K, x1 = 0.74",814.1 ± 1 kg/m3
same,mass density,"293.15 K, x1 = 0.85",810.6 ± 1 kg/m3
same,mass density,"293.15 K, x1 = 0.94",806.5 ± 1 kg/m3
same,mass density,"293.15 K, x1 = 1",802.4 ± 1 kg/m3
same,viscosity,"298.15 K, x1 = 0.0809",3.11 ± 0.25 mPa·s
same,viscosity,"298.15 K, x1 = 0.1599",2.91 ± 0.23 mPa·s
same,viscosity,"298.15 K, x1 = 0.2402",2.71 ± 0.22 mPa·s
same,viscosity,"298.15 K, x1 = 0.35",2.42 ± 0.19 mPa·s
same,viscosity,"298.15 K, x1 = 0.44",2.15 ± 0.17 mPa·s
same,viscosity,"298.15 K, x1 = 0.5599",1.78 ± 0.14 mPa·s
same,viscosity,"298.15 K, x1 = 0.65",1.49 ± 0.12 mPa·s
same,viscosity,"298.15 K, x1 = 0.74",1.2 ± 0.1 mPa·s
same,viscosity,"298.15 K, x1 = 0.85",0.83 ± 0.07 mPa·s
same,viscosity,"298.15 K, x1 = 0.94",0.52 ± 0.04 mPa·s
same,viscosity,"298.15 K, x1 = 1",0.33 ± 0.03 mPa·s
same,mass density,"298.15 K, x1 = 0.0809",806.6 ± 1 kg/m3
same,mass density,"298.15 K, x1 = 0.1599",808 ± 1 kg/m3
same,mass density,"298.15 K, x1 = 0.2402",809.2 ± 1 kg/m3
same,mass density,"298.15 K, x1 = 0.35",809.9 ± 1 kg/m3
same,mass density,"298.15 K, x1 = 0.44",810.2 ± 1 kg/m3
same,mass density,"298.15 K, x1 = 0.5599",809.5 ± 1 kg/m3
same,mass density,"298.15 K, x1 = 0.65",808.4 ± 1 kg/m3
same,mass density,"298.15 K, x1 = 0.74",806.6 ± 1 kg/m3
same,mass density,"298.15 K, x1 = 0.85",803.4 ± 1 kg/m3
same,mass density,"298.15 K, x1 = 0.94",799.8 ± 1 kg/m3
same,mass density,"298.15 K, x1 = 1",796.2 ± 1 kg/m3
same,viscosity,"303.15 K, x1 = 0.0809",2.64 ± 0.21 mPa·s
same,viscosity,"303.15 K, x1 = 0.1599",2.47 ± 0.2 mPa·s
same,viscosity,"303.15 K, x1 = 0.2402",2.29 ± 0.18 mPa·s
same,viscosity,"303.15 K, x1 = 0.35",2.04 ± 0.16 mPa·s
same,viscosity,"303.15 K, x1 = 0.44",1.82 ± 0.15 mPa·s
same,viscosity,"303.15 K, x1 = 0.5599",1.52 ± 0.12 mPa·s
same,viscosity,"303.15 K, x1 = 0.65",1.29 ± 0.1 mPa·s
same,viscosity,"303.15 K, x1 = 0.74",1.04 ± 0.08 mPa·s
same,viscosity,"303.15 K, x1 = 0.85",0.73 ± 0.06 mPa·s
same,viscosity,"303.15 K, x1 = 0.94",0.47 ± 0.04 mPa·s
same,viscosity,"303.15 K, x1 = 1",0.31 ± 0.03 mPa·s
same,mass density,"303.15 K, x1 = 0.0809",802.1 ± 1 kg/m3
same,mass density,"303.15 K, x1 = 0.1599",803.2 ± 1 kg/m3
same,mass density,"303.15 K, x1 = 0.2402",804 ± 1 kg/m3
same,mass density,"303.15 K, x1 = 0.35",804.5 ± 1 kg/m3
same,mass density,"303.15 K, x1 = 0.44",804.4 ± 1 kg/m3
same,mass density,"303.15 K, x1 = 0.5599",803.5 ± 1 kg/m3
same,mass density,"303.15 K, x1 = 0.65",802.2 ± 1 kg/m3
same,mass density,"303.15 K, x1 = 0.74",800.4 ± 1 kg/m3
same,mass density,"303.15 K, x1 = 0.85",797.1 ± 1 kg/m3
same,mass density,"303.15 K, x1 = 0.94",793.6 ± 1 kg/m3
same,mass density,"303.15 K, x1 = 1",790.3 ± 1 kg/m3
same,viscosity,"308.15 K, x1 = 0.0809",2.24 ± 0.18 mPa·s
same,viscosity,"308.15 K, x1 = 0.1599",2.11 ± 0.17 mPa·s
same,viscosity,"308.15 K, x1 = 0.2402",1.96 ± 0.16 mPa·s
same,viscosity,"308.15 K, x1 = 0.35",1.74 ± 0.14 mPa·s
same,viscosity,"308.15 K, x1 = 0.44",1.55 ± 0.12 mPa·s
same,viscosity,"308.15 K, x1 = 0.5599",1.29 ± 0.1 mPa·s
same,viscosity,"308.15 K, x1 = 0.65",1.1 ± 0.09 mPa·s
same,viscosity,"308.15 K, x1 = 0.74",0.89 ± 0.07 mPa·s
same,viscosity,"308.15 K, x1 = 0.85",0.64 ± 0.05 mPa·s
same,viscosity,"308.15 K, x1 = 0.94",0.43 ± 0.04 mPa·s
same,viscosity,"308.15 K, x1 = 1",0.3 ± 0.03 mPa·s
same,mass density,"308.15 K, x1 = 0.0809",797.7 ± 1 kg/m3
same,mass density,"308.15 K, x1 = 0.1599",798.5 ± 1 kg/m3
same,mass density,"308.15 K, x1 = 0.2402",798.9 ± 1 kg/m3
same,mass density,"308.15 K, x1 = 0.35",799 ± 1 kg/m3
same,mass density,"308.15 K, x1 = 0.44",798.7 ± 1 kg/m3
same,mass density,"308.15 K, x1 = 0.5599",797.5 ± 1 kg/m3
same,mass density,"308.15 K, x1 = 0.65",796.1 ± 1 kg/m3
same,mass density,"308.15 K, x1 = 0.74",794.2 ± 1 kg/m3
same,mass density,"308.15 K, x1 = 0.85",791 ± 1 kg/m3
same,mass density,"308.15 K, x1 = 0.94",787.6 ± 1 kg/m3
same,mass density,"308.15 K, x1 = 1",784.5 ± 1 kg/m3
same,viscosity,"313.15 K, x1 = 0.0809",1.88 ± 0.15 mPa·s
same,viscosity,"313.15 K, x1 = 0.1599",1.76 ± 0.14 mPa·s
same,viscosity,"313.15 K, x1 = 0.2402",1.63 ± 0.13 mPa·s
same,viscosity,"313.15 K, x1 = 0.35",1.45 ± 0.12 mPa·s
same,viscosity,"313.15 K, x1 = 0.44",1.3 ± 0.1 mPa·s
same,viscosity,"313.15 K, x1 = 0.5599",1.09 ± 0.09 mPa·s
same,viscosity,"313.15 K, x1 = 0.65",0.92 ± 0.07 mPa·s
same,viscosity,"313.15 K, x1 = 0.74",0.75 ± 0.06 mPa·s
same,viscosity,"313.15 K, x1 = 0.85",0.56 ± 0.05 mPa·s
same,viscosity,"313.15 K, x1 = 0.94",0.39 ± 0.03 mPa·s
same,viscosity,"313.15 K, x1 = 1",0.28 ± 0.02 mPa·s
same,mass density,"313.15 K, x1 = 0.0809",793.1 ± 1 kg/m3
same,mass density,"313.15 K, x1 = 0.1599",793.6 ± 1 kg/m3
same,mass density,"313.15 K, x1 = 0.2402",793.9 ± 1 kg/m3
same,mass density,"313.15 K, x1 = 0.35",793.8 ± 1 kg/m3
same,mass density,"313.15 K, x1 = 0.44",793.3 ± 1 kg/m3
same,mass density,"313.15 K, x1 = 0.5599",792 ± 1 kg/m3
same,mass density,"313.15 K, x1 = 0.65",790.5 ± 1 kg/m3
same,mass density,"313.15 K, x1 = 0.74",788.5 ± 1 kg/m3
same,mass density,"313.15 K, x1 = 0.85",785.3 ± 1 kg/m3
same,mass density,"313.15 K, x1 = 0.94",781.9 ± 1 kg/m3
same,mass density,"313.15 K, x1 = 1",779 ± 1 kg/m3
same,viscosity,"318.15 K, x1 = 0.0809",1.55 ± 0.12 mPa·s
same,viscosity,"318.15 K, x1 = 0.1599",1.45 ± 0.12 mPa·s
same,viscosity,"318.15 K, x1 = 0.2402",1.34 ± 0.11 mPa·s
same,viscosity,"318.15 K, x1 = 0.35",1.19 ± 0.1 mPa·s
same,viscosity,"318.15 K, x1 = 0.44",1.07 ± 0.09 mPa·s
same,viscosity,"318.15 K, x1 = 0.5599",0.9 ± 0.07 mPa·s
same,viscosity,"318.15 K, x1 = 0.65",0.77 ± 0.06 mPa·s
same,viscosity,"318.15 K, x1 = 0.74",0.64 ± 0.05 mPa·s
same,viscosity,"318.15 K, x1 = 0.85",0.49 ± 0.04 mPa·s
same,viscosity,"318.15 K, x1 = 0.94",0.35 ± 0.03 mPa·s
same,viscosity,"318.15 K, x1 = 1",0.27 ± 0.02 mPa·s
same,mass density,"318.15 K, x1 = 0.0809",788.6 ± 1 kg/m3
same,mass density,"318.15 K, x1 = 0.1599",788.9 ± 1 kg/m3
same,mass density,"318.15 K, x1 = 0.2402",789 ± 1 kg/m3
same,mass density,"318.15 K, x1 = 0.35",788.7 ± 1 kg/m3
same,mass density,"318.15 K, x1 = 0.44",788.1 ± 1 kg/m3
same,mass density,"318.15 K, x1 = 0.5599",786.5 ± 1 kg/m3
same,mass density,"318.15 K, x1 = 0.65",785 ± 1 kg/m3
same,mass density,"318.15 K, x1 = 0.74",782.9 ± 1 kg/m3
same,mass density,"318.15 K, x1 = 0.85",779.6 ± 1 kg/m3
same,mass density,"318.15 K, x1 = 0.94",776.2 ± 1 kg/m3
same,mass density,"318.15 K, x1 = 1",773.5 ± 1 kg/m3
same,viscosity,"323.15 K, x1 = 0.0809",1.29 ± 0.1 mPa·s
same,viscosity,"323.15 K, x1 = 0.1599",1.2 ± 0.1 mPa·s
same,viscosity,"323.15 K, x1 = 0.2402",1.1 ± 0.09 mPa·s
same,viscosity,"323.15 K, x1 = 0.35",0.97 ± 0.08 mPa·s
same,viscosity,"323.15 K, x1 = 0.44",0.87 ± 0.07 mPa·s
same,viscosity,"323.15 K, x1 = 0.5599",0.74 ± 0.06 mPa·s
same,viscosity,"323.15 K, x1 = 0.65",0.64 ± 0.05 mPa·s
same,viscosity,"323.15 K, x1 = 0.74",0.54 ± 0.04 mPa·s
same,viscosity,"323.15 K, x1 = 0.85",0.42 ± 0.03 mPa·s
same,viscosity,"323.15 K, x1 = 0.94",0.32 ± 0.03 mPa·s
same,viscosity,"323.15 K, x1 = 1",0.25 ± 0.02 mPa·s
same,mass density,"323.15 K, x1 = 0.0809",783.9 ± 1 kg/m3
same,mass density,"323.15 K, x1 = 0.1599",783.9 ± 1 kg/m3
same,mass density,"323.15 K, x1 = 0.2402",783.5 ± 1 kg/m3
same,mass density,"323.15 K, x1 = 0.35",782.7 ± 1 kg/m3
same,mass density,"323.15 K, x1 = 0.44",781.8 ± 1 kg/m3
same,mass density,"323.15 K, x1 = 0.5599",780.1 ± 1 kg/m3
same,mass density,"323.15 K, x1 = 0.65",778.4 ± 1 kg/m3
same,mass density,"323.15 K, x1 = 0.74",776.4 ± 1 kg/m3
same,mass density,"323.15 K, x1 = 0.85",773.4 ± 1 kg/m3
same,mass density,"323.15 K, x1 = 0.94",770.6 ± 1 kg/m3
same,mass density,"323.15 K, x1 = 1",768.2 ± 1 kg/m3
